Each structure is given as a SMILES string.

The target in experiment [1] is T1, human lipocalin-prostaglandin D2 synthase (human lipocalin-PGDS) (Homo sapiens, UniProt P41222).
T1 sequence (P41222 23-190): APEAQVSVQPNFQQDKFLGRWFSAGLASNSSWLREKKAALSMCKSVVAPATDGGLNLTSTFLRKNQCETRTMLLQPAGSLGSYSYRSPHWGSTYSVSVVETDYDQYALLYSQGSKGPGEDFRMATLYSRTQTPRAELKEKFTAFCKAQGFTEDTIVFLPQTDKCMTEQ
The experiment is described as follows: Inhibition of human lipocalin-PGDS enzyme activity. The format is biochemical. The settings on record: at a concentration of 10 μmol/L; read-out: inhibitory rate, human lipocalin-PGDS.

A further experiment addresses cyclooxygenase-1 (COX-1) (Homo sapiens, UniProt P23219). The experiment is described as follows: Inhibition of COX-1 enzyme activity. The settings on record: at a concentration of 10 μmol/L; read-out: inhibitory rate, COX-1. Format: biochemical.
The next experiment has as its target T2, cyclooxygenase-2 (COX-2) (Homo sapiens, UniProt P35354).
T2 sequence (P35354 18-604): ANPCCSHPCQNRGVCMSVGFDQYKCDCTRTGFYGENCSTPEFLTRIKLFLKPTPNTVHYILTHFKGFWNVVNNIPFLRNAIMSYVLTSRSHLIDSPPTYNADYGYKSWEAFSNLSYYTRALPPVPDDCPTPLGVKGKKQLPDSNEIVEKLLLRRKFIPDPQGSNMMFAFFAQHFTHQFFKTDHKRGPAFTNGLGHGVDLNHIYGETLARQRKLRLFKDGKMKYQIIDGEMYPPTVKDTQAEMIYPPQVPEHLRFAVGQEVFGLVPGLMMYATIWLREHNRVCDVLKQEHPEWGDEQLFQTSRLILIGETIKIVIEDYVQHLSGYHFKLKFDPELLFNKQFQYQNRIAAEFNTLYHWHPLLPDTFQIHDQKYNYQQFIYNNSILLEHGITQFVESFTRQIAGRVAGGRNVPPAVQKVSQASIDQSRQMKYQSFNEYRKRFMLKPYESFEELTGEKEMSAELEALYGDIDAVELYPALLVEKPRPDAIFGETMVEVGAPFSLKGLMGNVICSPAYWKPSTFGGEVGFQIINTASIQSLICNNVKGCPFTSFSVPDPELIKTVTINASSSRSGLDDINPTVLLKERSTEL
Nature of the experiment: Inhibition of COX-2 enzyme activity. The settings on record: at a concentration of 10 μmol/L; read-out: inhibitory rate, COX-2. Format: biochemical.

A further experiment relates to mouse model of asthma. Nature of the experiment: Airway hyperresponsiveness and eosinophil infiltration in the airway in a mouse model of asthma. The format is in vivo. The settings on record: 3 mg/kg orally once daily during antigen exposure, OVA-sensitized BALB/c mice. The protocol: The mouse model of asthma was prepared as follows. For experimental use, 6-week-old male BALB/c mice were purchased from Charles River Japan (Atsugi, Kanagawa). Equal amounts of a 0.5 mg/mL solution of ovalbumin in physiological saline and a 10 mg/mL suspension of aluminum hydroxide in physiological saline were mixed to give a sensitizing fluid. With well mixing of the sensitization fluid, 0.2 mL of the fluid was intraperitoneally administered to each mouse for sensitization. About 1 week after the initial sensitization, the same procedure was performed for additional sensitization. […]
The expression of airway hyperresponsiveness (increase of airway reactivity) was evaluated by measuring, under anesthesia, airway reactivity to methacholine (MCh: acetyl-β-methylcholine chloride, Cat. No. A-2251, Sigma-Aldrich) using a respiratory function analyzer [BioSystem XA; version 2.0.2.21 for Windows (registered trademark), preamplifier: MAX2215, body plethysmography box: PLY3011, pressure transducer: Validyne DP45-28, flaw transducer: Validyne DP45-14, Buxco Electronics, Troy, N.Y., USA]. […] As an indicator of airway reactivity, respiratory resistance (RL) values recorded every 5 seconds by the respiratory function analyzer were used. After fixing a mouse to the device and confirming the RL stability, the value after intravenous administration of a physiological saline solution was recorded first. […]

Chain of cyclooxygenase-1 (COX-1) (P23219 24-599, species assumed): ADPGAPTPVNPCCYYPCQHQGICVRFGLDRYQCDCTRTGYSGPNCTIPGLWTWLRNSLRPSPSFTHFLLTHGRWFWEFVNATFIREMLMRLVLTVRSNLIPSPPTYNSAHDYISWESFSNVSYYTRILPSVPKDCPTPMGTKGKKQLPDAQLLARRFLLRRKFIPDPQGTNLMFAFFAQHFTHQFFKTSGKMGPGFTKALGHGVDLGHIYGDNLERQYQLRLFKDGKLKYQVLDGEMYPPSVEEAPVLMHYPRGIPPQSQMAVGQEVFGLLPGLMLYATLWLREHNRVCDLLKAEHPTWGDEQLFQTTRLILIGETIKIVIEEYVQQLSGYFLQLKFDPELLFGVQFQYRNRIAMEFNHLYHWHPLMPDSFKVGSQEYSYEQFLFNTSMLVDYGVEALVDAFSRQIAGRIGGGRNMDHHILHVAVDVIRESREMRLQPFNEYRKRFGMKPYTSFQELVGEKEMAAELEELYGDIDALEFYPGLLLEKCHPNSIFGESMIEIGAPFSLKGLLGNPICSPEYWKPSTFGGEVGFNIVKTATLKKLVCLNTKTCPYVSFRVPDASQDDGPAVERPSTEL

Consider `O=C(O)c1cc(-c2ccco2)nc2ccc3nn(-c4ccccc4)nc3c12` [Compound 133, 7-(furan-2-yl)-2-phenyl-2H-[1,2,3]triazolo[4,5-f]quinoline-9-carboxylic acid], for which the inhibition at 10 µM (in experiment [1]; at cyclooxygenase-1 (COX-1); on cyclooxygenase-2 (COX-2)) was no more than 20% each time. Moreover, in the experiment with mouse model of asthma, the “inhibition of the expression of airway hyperresponsiveness” value worked out at 98%. The “inhibition of eosinophil infiltration in the airway” value in the experiment with mouse model of asthma (BAL fluid) is 55%.

The values above are taken from patent publication US20120196854A1, “PHARMACEUTICAL COMPOSITION COMPRISING AROMATIC HETEROCYCLIC COMPOUND” (Kyowa Hakko Kirin Co., Ltd., priority 2009, published 2012).
